Measured values published in patent publication US9422308B2, “Derivatives of docosahexaenoylethanolamide and uses thereof” (The United States of America, as represented by the …, priority 2012, dated 2016).

Key:
FAAH KO mice = test: beam walk test after traumatic brain injury by controlled cortical impact; format: in vivo; settings: one-time i.p. 25 mg/kg at 15 min after TBI (CCI), from the day 4 after TBI, FIG. 8
Method: For the beam walk test, mice were trained to traverse a narrow beam before injury caused by controlled cortical impact (CCI), and the number of hind foot slips after injury was observed over the course of recovery.
A8 has increased resistance to FAAH in comparison to synaptamide but still does show some susceptibility to hydrolysis by FAAH. The effects of A8 in FAAH KO mice were tested by one-time i.p. administration of A8 (25 mg/kg) at 15 min after traumatic brain injury (TBI) inflicted by controlled cortical impact (CCI).

neural stem cells = test: neuronal and glial differentiation of neural stem cells (MAP2/GFAP immunofluorescence); format: cell-based, rats; settings: 7 days, differentiating NSCs
Method: Fetal neural stem cell culture: Neural stern cells (NSCs) were cultured by the neurosphere method (Rietze R. L., Reynolds B. A. (2006) Neural stem cell isolation and characterization. Methods Enzymol. 419, 3-23, the method incorporated by reference herein) with slight modification. Forebrain cortices of rats were isolated on embryonic day 14.5 and 12.5, respectively. The cortices were mechanically disrupted into single cells by repeated pipetting in a serum-free conditioned medium (N2 medium) containing DMEM/F12 (1:1), 0.6% (wt/vol) glucose, 0.1125% (wt/vol) sodium bicarbonate, 2 mM L-glutamine, 5 mM HEPES, 100 μg/mL human apo-transferrin, 20 nM progesterone, 30 nM sodium selenite, 60 μM putrescine, and 25 μg/mL insulin. The dissociated cells were cultured in 6 cm dishes at a density of 1×10^5 cells/mL in N2 medium with 20 ng/mL bFGF and 2 μg/mL heparin in a humidified 5% CO2/95% air incubator at 37° C. Within 3-4 days, the cells grew as free-floating neurospheres that were then collected by centrifugation, mechanically dissociated by pipetting, and passaged.
Differentiation of NSCs: After the second passage, nestin- and SOX2-positive NSCs were enriched in the neurosphere with minimal presence of differentiated cells (MAP2, Tuj-1 and GFAP-positive cells). After the second passage neurospheres were mechanically dissociated and 5×10^5 cells/mL were plated onto 15 μg/mL poly-L-ornithine coated 6- or 24-well plates in N2 medium without bFGF and heparin to initiate the differentiation. The cultures were then treated with N2 medium containing A8 in the presence of 40 μM vitamin E for 1-7 days. As the vehicle control, N2 medium containing 40 μM vitamin E was used.
Immunofluorescence staining: For immunofluorescence staining, 2.5×10^5 NSCs were cultured in 0.5 mL media. […] Finally, the cells were mounted with 80% (vol/vol) glycerol, visualized under a fluorescence microscope and the image data were processed using MetaMorph software for quantitative information. The number of MAP2- and GFAP-positive cells were counted from three separate wells with three to six random fields per well. […]

FAAH = molecular target: T1, FAAH (Homo sapiens, UniProt O00519); test: time course FAAH enzyme assay; format: in vitro ADME; settings: for % remaining: 1 mM, pH 9
T1 sequence (O00519 1-579): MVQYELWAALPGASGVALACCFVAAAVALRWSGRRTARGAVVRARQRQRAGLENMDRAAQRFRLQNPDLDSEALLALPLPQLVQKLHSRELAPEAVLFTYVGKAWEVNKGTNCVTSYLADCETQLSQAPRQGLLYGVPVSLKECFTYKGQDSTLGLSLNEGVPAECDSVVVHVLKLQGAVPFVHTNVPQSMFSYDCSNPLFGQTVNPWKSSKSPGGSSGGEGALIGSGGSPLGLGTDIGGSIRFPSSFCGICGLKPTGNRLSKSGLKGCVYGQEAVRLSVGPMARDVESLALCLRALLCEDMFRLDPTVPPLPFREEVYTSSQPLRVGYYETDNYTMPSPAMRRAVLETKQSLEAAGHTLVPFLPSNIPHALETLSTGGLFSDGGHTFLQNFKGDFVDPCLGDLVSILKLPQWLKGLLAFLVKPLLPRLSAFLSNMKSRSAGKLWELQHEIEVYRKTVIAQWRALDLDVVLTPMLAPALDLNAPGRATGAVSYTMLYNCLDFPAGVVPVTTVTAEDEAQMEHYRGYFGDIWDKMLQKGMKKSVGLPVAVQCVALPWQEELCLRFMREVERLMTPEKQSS
Method: Method development: The signal was optimized for each compound by ESI positive or negative ionization mode. A MS2 SIM scan was used to optimize the precursor ion and a product ion analysis was used to identify the best fragment for analysis and to optimize the collision energy.
Analysis: Samples were analyzed by LC/MS/MS using a API 3000 coupled with an Shimadzu HPLC and a CTC PAL chilled autosampler, all […] controlled by Analyst software (ABI). After separation on a C18 reverse phase HPLC column (Agilent, Waters, or equivalent). Mobile phase A was 0.1% AcOH in water. Mobile phase B was 0.1% AcOH in methanol. The flow rate was 0.6 mL/min. The gradient program included a 0.5 min hold at 30% B (the starting conditions), followed by a gradient to 100% B over 2.5 min and a 1 min hold at 100% B. The column was then returned to starting conditions and equilibrated over 1.25 min.
Assay Protocol: Assays were performed at 37° C. at pH=9.0 and involved the use of 0.1 U of FAAH. […] Reaction was terminated after an appropriate time by using protein precipitation treatment with acetonitrile (3:1, v/v).

% remaining (FAAH; 0 h): 99% | % remaining (FAAH; 0.5 h): 101% | % remaining (FAAH; 1 h): 85%
Structure (SMILES): CC/C=C\C/C=C\C/C=C\C/C=C\C/C=C\C/C=C\CCC(=O)NCC(C)(C)O [Compound 1, (4Z,7Z,10Z,13Z,16Z,19Z)—N-(2-hydroxy-2-methylpropyl)docosa-4,7,10,13,16,19-hexaenamide]
TBI-induced behavioral deficit (beam walk test, hind foot slips) (FAAH KO mice): significant improvement | MAP2 positive cells (neural stem cells; 1 nM, control 7.0±0.8, p=0.02): 10.8±1.8% | differentiation into GFAP positive cells (neural stem cells; 1-100 nM range): not affected | MAP2 positive cells (maximum effect) (neural stem cells; around 10 nM, p=0.007): 17.2±4.1% | susceptibility to hydrolysis by FAAH (FAAH): less susceptible to hydrolysis by FAAH than synaptamide or AEA
